This is an account of results in patent publication US20210355104A1, “ADENOSINE RECEPTOR BINDING COMPOUNDS” (Nikang Therapeuticsm Inc., priority 2018, published 2021).

“And” between values parts separate entries of the source, which are not always exact repeats. Equal values may be shown once.

Chain of Adenosine A2A receptor (P29274 whole entry): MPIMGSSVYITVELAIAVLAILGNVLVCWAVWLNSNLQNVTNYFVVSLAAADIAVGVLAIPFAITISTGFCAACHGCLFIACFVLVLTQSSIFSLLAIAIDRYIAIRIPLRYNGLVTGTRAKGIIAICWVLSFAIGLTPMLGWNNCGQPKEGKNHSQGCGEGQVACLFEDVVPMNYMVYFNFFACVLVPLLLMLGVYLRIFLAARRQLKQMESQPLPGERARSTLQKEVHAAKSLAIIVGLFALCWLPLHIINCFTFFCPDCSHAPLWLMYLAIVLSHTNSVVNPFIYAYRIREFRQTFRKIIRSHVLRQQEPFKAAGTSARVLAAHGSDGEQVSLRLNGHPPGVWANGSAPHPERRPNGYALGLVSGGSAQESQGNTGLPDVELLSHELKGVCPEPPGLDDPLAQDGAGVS

The target of the first assay is Adenosine A2A receptor (Homo sapiens, UniProt P29274). Briefly: cAMP assay in 293A cells stably expressing the adenosine A2A receptor (CGS21680 stimulation, HTRF). Type of assay: cell-based. Also noted: expressed in transfected cells; host or cells: 293A cells (Invitrogen, Cat# R705-07) infected with A2A-expressing lentivirus (custom packaged by Biosettia), puromycin selected. The conditions noted are these: 293A cells stably expressing A2A receptor; 0.1% BSA; 1 uM CGS21680 stimulation; replicate values separated by /; read-out: cAMP (nM) 0.1% BSA, 1 uM CGS. As to the method:
A 293A cell line (Invitrogen, Cat# R705-07) stably expressing the adenosine A2A receptor was generated in house. Briefly, 293A cells were seeded in 6-well plate and infected with A2A expressing lentivirus (custom packaged by Biosettia) and selected with puromycin (1 ug/ml). Cells survived selection were confirmed for A2A expression by RT-qPCR (RT Reagent: High-Capacity cDNA Reverse Transcription Kit, Applied Biosystems/Thermo Fisher Cat# 4368814, qPCR reagent: SYBR™ Green Master Mix, Applied Biosystems/Thermo Fisher Cat# 4309155). The cells were maintained in DMEM/F12 medium containing 10% FBS, 100 units/ml Penicillin, 100 μg/ml Streptomycin, and 1 μg/ml puromycin at 37° C., 5% CO2. 293A-A2AR cells were harvested on the day of assay and resuspended at 0.6 million cells/ml in DMEM/F12 with 0.1% BSA and 30 U/ml denosine deaminase(Roche, Cat #: 10102121001). Serial dilutions of compounds were prepared in DMEM/F12 with 0.1% BSA to a DMSO concentration of 0.6%. After 4 μl of compound dilutions were added, 4 μl suspended cells were dispensed into low-volume white 384-well plates (Greiner Bio-One). […] The assay plate was then incubated at room temperature for 30 min. 3 μl of d2 conjugated cAMP and 3 μl cryptate conjugated anti-cAMP antibody were then added. D2 conjugated cAMP and cryptate conjugated anti-cAMP antibody (Cisbio, Cat #: 62AM6PEC) were both prepared in cell lysis buffer according to the manufacturer's instruction. After 1 h incubation at room temperature, plates were read in CIARIOstar plate reader (BMG Labtech) using the HTRF detection mode.
(In general: Changes in cAMP serve as a functional read-out for many G protein-coupled receptors.)
Turning to `Cc1cc(-c2c(OCc3cc(C(C)(C)O)cc(C(C)(C)O)n3)nc(N)nc2-c2ccc(F)cc2)cc(C(F)F)n1` [Example 421, 2,2′-(6-(((2-amino-5-(2-(difluoromethyl)-6-methylpyridin-4-yl)-6-(4-fluorophenyl)pyrimidin-4-yl)oxy)methyl)pyridine-2,4-diyl)bis(propan-2-ol)], the IC50 came to 3420 nM.
Still for that read-out and setting: next, `Cc1cc(-c2c(OCc3nccc4nn(C)cc34)nc(N)nc2-c2ccc(F)cc2)cc(C(F)F)n1` [Example 430, 5-(2-(difluoromethyl)-6-methylpyridin-4-yl)-4-(4-fluorophenyl)-6-((2-methyl-2H-pyrazolo[4,3-c]pyridin-4-yl)methoxy)pyrimidin-2-amine]: 2460 nM.
The same measure, in the same setting: next, `Cc1cc(-c2c(OCc3nc4cccc(C(C)(C)O)c4n3C)nc(N)nc2-c2ccc(F)cc2)cc(C(F)F)n1` [Example 396, 2-(2-(((2-amino-5-(2-(difluoromethyl)-6-methylpyridin-4-yl)-6-(4-fluorophenyl)pyrimidin-4-yl)oxy)methyl)-1-methyl-1H-benzo[d]imidazol-7-yl)propan-2-ol]: 869 nM and 634 nM; `Cc1cc(-c2c(OCc3cc(C#N)cc(C(C)(C)O)n3)nc(N)nc2-c2ccc(F)cc2)cc(C(F)F)n1` [Example 435, 2-(((2-amino-5-(2-(difluoromethyl)-6-methylpyridin-4-yl)-6-(4-fluorophenyl)pyrimidin-4-yl)oxy)methyl)-6-(2-hydroxypropan-2-yl)isonicotinonitrile]: 506 nM.
On the same count and under the same terms, next, `Cc1cc(-c2c(OCc3nccc4c3cnn4C)nc(N)nc2-c2ccc(F)cc2)cc(C(F)F)n1` [Example 423, 5-(2-(difluoromethyl)-6-methylpyridin-4-yl)-4-(4-fluorophenyl)-6-((1-methyl-1H-pyrazolo[4,3-c]pyridin-4-yl)methoxy)pyrimidin-2-amine]: 435 nM and 732 nM.
On to `Cc1cc(-c2c(OCc3cccc(NS(C)(=O)=O)n3)nc(N)nc2-c2ccc(F)cc2)cc(C(F)F)n1` [Example 411, N-(6-(((2-amino-5-(2-(difluoromethyl)-6-methylpyridin-4-yl)-6-(4-fluorophenyl)pyrimidin-4-yl)oxy)methyl)pyridin-2-yl)methanesulfonamide], for which the IC50 stood at 3190 nM.
Consider `Cc1cc(-c2c(OCc3cccc(CNS(C)(=O)=O)n3)nc(N)nc2-c2ccc(F)cc2)cc(C(F)F)n1` [Example 409, N-((6-(((2-amino-5-(2-(difluoromethyl)-6-methylpyridin-4-yl)-6-(4-fluorophenyl)pyrimidin-4-yl)oxy)methyl)pyridin-2-yl)methyl) methanesulfonamide], for which the IC50 was 977 nM and 822 nM.
Still for that read-out and setting: next, `Cc1cc(-c2c(OCc3ccc(=O)n(C(C)(C)C(=O)O)n3)nc(N)nc2-c2ccc(F)cc2)cc(C(F)F)n1` [Example 428, 2-(3-(((2-amino-5-(2-(difluoromethyl)-6-methylpyridin-4-yl)-6-(4-fluorophenyl)pyrimidin-4-yl)oxy)methyl)-6-oxopyridazin-1(6H)-yl)-2-methylpropanoic acid]: above 30000 nM.

The same assay, now with this note: 293A-A2AR cells, 0.1% BSA, 1 uM CGS; read-out: cAMP (nM) 0.1% BSA, 1 uM CGS.
Consider `CCc1c(COc2nc(N)nc(-c3ccc(F)cc3)c2-c2cc(C)nc(C(F)F)c2)nnn1CC(O)COC` (centres unmarked) [Example 323, 1-(4-(((2-amino-5-(2-(difluoromethyl)-6-methylpyridin-4-yl)-6-(4-fluorophenyl)pyrimidin-4-yl)oxy)methyl)-5-ethyl-1H-1,2,3-triazol-1-yl)-3-methoxypropan-2-ol], for which the IC50 turned out to be 1680 nM.
In the case of `Cc1cc(-c2c(OCc3nc4c(C(C)(C)O)cccc4n3C)nc(N)nc2-c2ccc(F)cc2)cc(C(F)F)n1` [Example 361, 2-(2-(((2-amino-5-(2-(difluoromethyl)-6-methylpyridin-4-yl)-6-(4-fluorophenyl)pyrimidin-4-yl)oxy)methyl)-1-methyl-1H-benzo[d]imidazol-4-yl)propan-2-ol], the IC50 is 854 nM and 1110 nM.
Still for that read-out and setting: next, `CCc1c(COc2nc(N)nc(-c3cccc(C#N)c3C)c2-c2cc(C)nc(C(F)F)c2)nnn1CC` [Example 256, 3-(2-amino-6-((1,5-diethyl-1H-1,2,3-triazol-4-yl)methoxy)-5-(2-(difluoromethyl)-6-methylpyridin-4-yl)pyrimidin-4-yl)-2-methylbenzonitrile]: 2910 nM; `Cc1cc(-c2c(OCc3cccc(C(C)O)n3)nc(N)nc2-c2ccc(F)cc2)cc(C(F)F)n1` (centres unmarked) [Example 272, 1-(6-(((2-amino-5-(2-(difluoromethyl)-6-methylpyridin-4-yl)-6-(4-fluorophenyl)pyrimidin-4-yl)oxy)methyl)pyridin-2-yl)ethan-1-ol]: 88 nM and 161 nM.
On to `CCc1nn(CC(C)(C)O)nc1COc1nc(N)nc(-c2ccc(F)cc2)c1-c1cc(C)nc(C(F)F)c1` [Example 251, 1-(4-(((2-amino-5-(2-(difluoromethyl)-6-methylpyridin-4-yl)-6-(4-fluorophenyl)pyrimidin-4-yl)oxy)methyl)-5-ethyl-2H-1,2,3-triazol-2-yl)-2-methylpropan-2-ol], for which the IC50 was 1280 nM.
Same read-out and setting: next, `Cc1cc(-c2c(OCc3nnnn3CC(C)(C)O)nc(N)nc2-c2ccc(F)cc2)cc(C(F)F)n1` [Example 292, 1-(5-(((2-amino-5-(2-(difluoromethyl)-6-methylpyridin-4-yl)-6-(4-fluorophenyl)pyrimidin-4-yl)oxy)methyl)-1H-tetrazol-1-yl)-2-methylpropan-2-ol]: 708 nM; `Cc1cc(-c2c(OCc3cccc(N(C)CC(=O)O)n3)nc(N)nc2-c2ccc(F)cc2)cc(C(F)F)n1` [Example 327, N-(6-(((2-amino-5-(2-(difluoromethyl)-6-methylpyridin-4-yl)-6-(4-fluorophenyl)pyrimidin-4-yl)oxy)methyl)pyridin-2-yl)-N-methylglycine]: 4390 nM; `Cc1cc(-c2c(OCCCCO)nc(N)nc2-c2ccc(F)cc2)cc(C(F)F)n1` [Example 245, 4-((2-amino-5-(2-(difluoromethyl)-6-methylpyridin-4-yl)-6-(4-fluorophenyl)pyrimidin-4-yl)oxy)butan-1-ol]: 265 nM.
Still for that read-out and setting: next, `Cc1cc(-c2c(OCCOc3ncccc3C(=O)O)nc(N)nc2-c2ccc(F)cc2)cc(C(F)F)n1` [Example 337, 2-(2-((2-amino-5-(2-(difluoromethyl)-6-methylpyridin-4-yl)-6-(4-fluorophenyl)pyrimidin-4-yl)oxy)ethoxy)nicotinic acid]: above 25000 nM.
Regarding `COCC(O)c1cccc(COc2nc(N)nc(-c3ccc(F)cc3)c2-c2cc(C)nc(C(F)F)c2)n1` (centres unmarked) [Example 281, 1-(6-(((2-amino-5-(2-(difluoromethyl)-6-methylpyridin-4-yl)-6-(4-fluorophenyl)pyrimidin-4-yl)oxy)methyl)pyridin-2-yl)-2-methoxyethan-1-ol], the IC50 was 609 nM.
On the same count and under the same terms, next, `Cc1cc(-c2c(OCc3cccc(N4CCC[C@H]4C(=O)O)n3)nc(N)nc2-c2ccc(F)cc2)cc(C(F)F)n1` [Example 311, (6-(((2-amino-5-(2-(difluoromethyl)-6-methylpyridin-4-yl)-6-(4-fluorophenyl)pyrimidin-4-yl)oxy)methyl)pyridin-2-yl)-L-proline]: above 10000 nM; `Cc1cc(-c2c(OCc3nnn(CC(C)(C)O)n3)nc(N)nc2-c2ccc(F)cc2)cc(C(F)F)n1` [Example 291, 1-(5-(((2-amino-5-(2-(difluoromethyl)-6-methylpyridin-4-yl)-6-(4-fluorophenyl)pyrimidin-4-yl)oxy)methyl)-2H-tetrazol-2-yl)-2-methylpropan-2-ol]: 5490 nM; `CCC(C)(C#N)c1cccc(COc2nc(N)nc(-c3ccc(F)cc3)c2-c2cc(C)nc(C(F)F)c2)n1` (centres unmarked) [Example 360, 2-(6-(((2-amino-5-(2-(difluoromethyl)-6-methylpyridin-4-yl)-6-(4-fluorophenyl)pyrimidin-4-yl)oxy)methyl)pyridin-2-yl)-2-methylbutanenitrile]: 50 nM and 51 nM and 115 nM.
On the same count and under the same terms, next, `Cc1cc(-c2c(OCc3nc4nc(C(C)(C)C(=O)O)ccc4n3C)nc(N)nc2-c2ccc(F)cc2)cc(C(F)F)n1` [Example 374, 2-(2-(((2-amino-5-(2-(difluoromethyl)-6-methylpyridin-4-yl)-6-(4-fluorophenyl)pyrimidin-4-yl)oxy)methyl)-1-methyl-1H-imidazo[4,5-b]pyridin-5-yl)-2-methylpropanoic acid]: above 25000 nM; `CCc1c(COc2nc(N)nc(-c3ccc(F)cc3)c2-c2cc(C)nc(C(F)F)c2)nnn1CC(C)(C)C(=O)O` [Example 302, 3-(4-(((2-amino-5-(2-(difluoromethyl)-6-methylpyridin-4-yl)-6-(4-fluorophenyl)pyrimidin-4-yl)oxy)methyl)-5-ethyl-1H-1,2,3-triazol-1-yl)-2,2-dimethylpropanoic acid]: above 10000 nM.
